What was measured:
B16/F1 melanocytes [1] = test: Inhibition of extracellular melanin production in B16/F1 melanocyte cultures; assay type: cell-based, Mouse; details: for Depigmenting effect (summary in text of Table 1): B16/F1 melanocytes, doses of Table 1; for % Inhibition of extracellular melanin production relative to the control / Extracellular melanin (control: 98 μg ± 4 μg/ml): 72 hours incubation
Protocol: The influence of N-undecylenoyl phenylalanine monoglyceride, arbutin and N-undecylenoyl phenylalanine on the production of extracellular melanin, in B16/F1 melanocyte cultures, was compared.
Mouse melanocytes of the B16/F1 line cultured as monolayers are seeded in 96-well culture plates at a density of 1500 cells/well. The cells are cultured in a culture medium (MCM medium) at 37° C. under a humid atmosphere containing 5% CO2. The cells are used at 50% of confluence. The MCM medium has the following composition: DMEM medium (Dulbecco's Modified Eagle's Medium) containing 4.5 g/l of glucose supplemented with L-glutamine (2 mM), penicillin (50 IU/ml), streptomycin (50 μg/ml) and fetal calf serum (10% v/v). […] The melanocyte cultures are incubated in the presence of the test product or of the reference products for 72 hours at 37° C., under a humid atmosphere containing 5% CO2. Control cultures are incubated, in the absence of product, in the MCM medium. These control cultures are prepared on each culture plate. Each test is performed six times. After incubation for 72 hours, the incubation media of the cells (n=6) are taken up and stored at −80° C. until the time of evaluation of the effects. The extracellular melanin is quantified by spectrophotometry at 450 nm. A melanin calibration range is prepared in parallel. The results are expressed as μg/ml of extracellular melanin and as a percentage of inhibition relative to the control group in Table 1 below.

B16/F1 melanocytes [2] = test: Cytotoxic effect in B16/F1 melanocyte cultures (Bradford total protein); assay type: cell-based, Mouse; details: for Cytotoxic effects (summary of Table 2): B16/F1 melanocytes, doses of Table 2; for % Decrease of the total amount of protein relative to the control / Evaluation (cytotoxicity): 72 hours incubation
Protocol: Study of the Cytotoxic Effect of the Compound of Formula (I) in B16/F1 melanocyte Cultures
Evaluation of the presence of cytotoxic effects is performed using the Bradford technique by staining with Coomassie blue (Bradford M., “A rapid and sensitive method for the quantification of microgram quantities of protein utilizing the principle of protein-dye binding”, Anal. Biochem., 1976, 72, 248-254). The B16/F1 melanocytes are incubated after seeding with the dilutions of the test products. After 72 hours of incubation, the B16/F1 melanocytes are washed and then lyzed, and Bradford's reagent is then added. After incubation for 5 minutes at room temperature, a spectrophotometric reading is taken at 640 nm in parallel with an albumin calibration range. The cytotoxicity is proven for a decrease greater than or equal to 20% of the total amount of protein. The results are expressed as a percentage decrease of the total amount of protein, in Table 2 below.

| SMILES | Depigmenting effect (summary in text of Table 1) (B16/F1 melanocytes [1]) | % Inhibition of extracellular melanin production relative to the control (B16/F1 melanocytes [1]; test product 80 μg/ml) | Extracellular melanin (control: 98 μg ± 4 μg/ml) (B16/F1 melanocytes [1]; test product 80 μg/ml) | Cytotoxic effects (summary of Table 2) (B16/F1 melanocytes [2]) | % Decrease of the total amount of protein relative to the control (B16/F1 melanocytes [2]; test product 60 μg/ml) | % Decrease of the total amount of protein relative to the control (B16/F1 melanocytes [2]; test product 80 μg/ml) | % Inhibition of extracellular melanin production relative to the control (B16/F1 melanocytes [1]; test product 40 μg/ml) [%] | Extracellular melanin (control: 98 μg ± 4 μg/ml) (B16/F1 melanocytes [1]; test product 40 μg/ml, n=6) [µg/mL] | % Decrease of the total amount of protein relative to the control (B16/F1 melanocytes [2]; test product 40 μg/ml) | % Decrease of the total amount of protein relative to the control (B16/F1 melanocytes [2]; test product 50 μg/ml) [%] | Evaluation (cytotoxicity) (B16/F1 melanocytes [2]; test product 50 μg/ml) | Evaluation (cytotoxicity) (B16/F1 melanocytes [2]; test product 80 μg/ml) |
| --- | --- | --- | --- | --- | --- | --- | --- | --- | --- | --- | --- | --- |
| C=CCCCCCCCCC(=O)NC(Cc1ccccc1)C(=O)OCC(O)COCC(O)CO (stereo not shown) [Compound (B), N-undecylenoyl phenylalanine diglyceryl ester] | depigmenting effect | 34% | 54 ± 3 µg/mL | absence of cytotoxic effects | No observed decrease | No observed decrease | – | – | – | – | – | – |
| C=CCCCCCCCCC(=O)NC(Cc1ccccc1)C(=O)OCC(O)CO (stereo not shown) [Compound (A), N-undecylenoyl phenylalanine monoglyceride] | depigmenting effect | 58% | 42 ± 1 µg/mL | absence of cytotoxic effects | – | No observed decrease | 15 | 84 ± 8 | No observed decrease | – | – | – |
| OC[C@H]1O[C@@H](Oc2ccc(O)cc2)[C@H](O)[C@@H](O)[C@@H]1O [Arbutin, reference compound] | – | – | – | – | – | – | 61 | 39 ± 3 | – | – | – | – |
| C=CCCCCCCCCC(=O)N[C@@H](Cc1ccccc1)C(=O)O [N-Undecylenoyl phenylalanine, N-undecylenoyl phenylalanine] | – | Cytotoxicity | Cytotoxicity | cytotoxic | – | 80% | 40 | 59 ± 3 | – | 32 | Cytotoxic (The cytotoxicity is proven for a decrease greater than or equal to 20% of the total amount of protein) | Cytotoxic (The cytotoxicity is proven for a decrease greater than or equal to 20% of the total amount of protein) |

Source: patent publication US8323627B2, “Monoester of N-undecylenoyl phenylalanine and polyol, method for preparing same, and use of said esters as a skin lightening agent” (Societe d'Exploitation de Produits pour les Industries …, priority 2008, dated 2012)
